Assay results as given in patent US20130310431A1, “USES FOR SUBSTITUTED 2-AMINO-THIAZOLONES IN TREATING ALZHEIMER'S DISEASE” (Amgen Inc, priority 2010, published 2013).
Entries after “also recorded” stand apart in the source; their conditions may differ.

Key:
[1] = Concentration vs. time profiles in plasma, CSF, brain regions and fat after intravenous infusion; assay type: in vivo, cynomolgus monkeys; conditions: cynomolgus monkey, intravenous infusion for 1 hour
Experimental: The concentration of AMG221 in the biological samples described above was measured as a function of time.
The concentration of (B) in the biological samples described above was measured as a function of time.

aged Wistar rats = experiment: Novel object recognition study (reversal of age-related behavioral deficits); assay type: in vivo; conditions: aged (20 months) Wistar rats, 14 day treatment, 3, 10, 30 mg/kg; compared to galantamine; FIG. 1; listed as AMG221
Experimental: Thus, over a 14 day treatment period, young and aged (20 months) Wistar rats were administered formulations as follows: […]
1. Young: pharmaceutical vehicle (no active agent);
2. Young: galantamine, an acetylcholinesterase inhibitor as a positive control;

time concentrations exceeded the cynomolgus Ki for 11β-HSD1 in CSF ([1]; CSF)	distribution into fat ([1]; relative to AMG221)	SMILES	distribution within central nervous system versus fat [1]	time concentrations exceeded the cynomolgus Ki for 11β-HSD1 in unbound plasma [1]	improvement in novel object recognition (aged Wistar rats)
five	distributed poorly into fat	CC(C)[C@]1(C)SC(N[C@H]2C[C@H]3C[C@@H]2C[C@@H]3O)=NC1=O [Compound (B)]	distributed uniformly and more rapidly within the central nervous system than in fat	eight	
		CC(C)[C@]1(C)SC(N[C@H]2C[C@@H]3CC[C@H]2C3)=NC1=O [Compound (A)]	distributed uniformly and more rapidly within the central nervous system than in fat	three	reverses age-related behavioral deficits; also recorded: superior improvement in novel object recognition
